ChEMBL document CHEMBL5042471, “Development and Application of Subtype-Selective Fluorescent Antagonists for the Study of the Human Adenosine A1 Receptor in Living Cells” (J Med Chem, 2021)
Each block holds one compound with its values, some of them ahead of it. Active and inactive are the calls of the source. No cut-off for these calls is given here.

Key:
Adenosine receptor A1 [1] = molecular target: T1, Adenosine receptor A1 (Homo sapiens, UniProt P30542); assay: Displacement of [3H]DPCPX from human A1 adenosine receptor expressed in Flp-In-CHO cells by radioligand competitive binding assay; format: cell-based
T1 sequence (P30542 whole entry): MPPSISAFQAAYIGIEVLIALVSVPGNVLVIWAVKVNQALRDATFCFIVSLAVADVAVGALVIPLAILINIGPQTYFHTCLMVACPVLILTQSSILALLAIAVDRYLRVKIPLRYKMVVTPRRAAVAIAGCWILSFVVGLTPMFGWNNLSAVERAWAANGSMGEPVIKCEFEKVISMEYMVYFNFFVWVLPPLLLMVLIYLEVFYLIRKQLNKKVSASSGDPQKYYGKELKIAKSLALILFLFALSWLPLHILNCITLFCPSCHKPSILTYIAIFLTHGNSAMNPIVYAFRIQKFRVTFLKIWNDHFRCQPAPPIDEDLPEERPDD

Adenosine receptor A1 [2] = molecular target: T2, Adenosine receptor A1 (Rattus norvegicus, UniProt P25099); assay: Binding affinity to N-terminal NLuc tagged rat A1 adenosine receptor expressed in Flp-In-CHO cells by competitive binding assay; format: cell-based
T2 sequence (P25099 whole entry): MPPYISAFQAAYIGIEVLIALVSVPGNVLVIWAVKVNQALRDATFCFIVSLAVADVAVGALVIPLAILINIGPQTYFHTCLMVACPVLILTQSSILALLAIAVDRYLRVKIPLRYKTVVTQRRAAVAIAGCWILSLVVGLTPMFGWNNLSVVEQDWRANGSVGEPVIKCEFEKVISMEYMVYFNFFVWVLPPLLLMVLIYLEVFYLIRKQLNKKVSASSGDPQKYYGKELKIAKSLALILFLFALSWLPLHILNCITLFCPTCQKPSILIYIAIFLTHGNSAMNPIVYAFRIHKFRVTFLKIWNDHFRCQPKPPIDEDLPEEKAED

Adenosine receptor A1 [3] = molecular target: T1, Adenosine receptor A1; assay: Binding affinity to N-terminal NLuc tagged human A1 adenosine receptor expressed in Flp-In-CHO cells by competitive binding assay; format: cell-based
[4] = molecular target: T3, Adenosine receptor A2b (Homo sapiens) (UniProt P29275); assay: Binding affinity to NLuc human A2B adenosine receptor expressed in HEK293-A cells assessed as maximal binding capacity in presence of 1 uM PSB603 by NanoBRET binding assay; format: cell-based; conditions: filed as antagonist
T3 sequence (whole entry): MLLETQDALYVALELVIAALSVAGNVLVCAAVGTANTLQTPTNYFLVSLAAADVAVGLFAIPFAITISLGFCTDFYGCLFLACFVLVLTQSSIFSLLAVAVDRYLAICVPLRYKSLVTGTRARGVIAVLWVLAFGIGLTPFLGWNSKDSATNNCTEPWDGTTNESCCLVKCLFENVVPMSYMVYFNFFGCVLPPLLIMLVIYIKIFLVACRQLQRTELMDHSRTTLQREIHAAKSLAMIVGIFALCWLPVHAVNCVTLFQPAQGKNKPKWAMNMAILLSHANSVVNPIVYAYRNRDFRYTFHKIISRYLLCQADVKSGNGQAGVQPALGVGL

Adenosine receptor A2a [5] = molecular target: T4, Adenosine receptor A2a (Homo sapiens, UniProt P29274); assay: Binding affinity to NLuc human A2A adenosine receptor expressed in HEK293-A cells in presence of 1 uM ZM241385 by NanoBRET binding assay; format: cell-based
Adenosine receptor A2a [6] = molecular target: T4, Adenosine receptor A2a; assay: Binding affinity to NLuc human A2A adenosine receptor expressed in HEK293-A cells assessed as maximal binding capacity in presence of 1 uM ZM241385 by NanoBRET binding assay; format: cell-based; conditions: filed as antagonist
[7] = molecular target: T5, Adenosine receptor A1 (Homo sapiens) (UniProt P30542); assay: Antagonist activity at human A1 adenosine receptor expressed in Flp-In-CHO cells assessed as reduction in NECA-mediated inhibition of forskolin stimulated cAMP accumulation by cAMP assay; format: functional, cell-based; conditions: filed as antagonist
T5 sequence (whole entry): T1 sequence (P30542 whole entry)

[8] = molecular target: T5, Adenosine receptor A1 (Homo sapiens); assay: Binding affinity to NLuc human A1 adenosine receptor expressed in HEK293-A cells assessed as maximal binding capacity in presence of 1 uM SLV320 by NanoBRET binding assay; format: cell-based; conditions: filed as antagonist
[9] = molecular target: T5, Adenosine receptor A1 (Homo sapiens); assay: Binding affinity to NanoLuc-human A1 adenosine receptor expressed in HEK293-A cells assessed as binding constant (koff) by NanoBRET competitive binding assay; format: cell-based; conditions: filed as antagonist
[10] = molecular target: T5, Adenosine receptor A1 (Homo sapiens); assay: Binding affinity to SNAP-tagged-human A1 adenosine receptor expressed in HEK293 cells at 5 nM after 30 mins in presence of SLV320 by confocal microscopy method; format: cell-based
Adenosine receptor A2b = molecular target: T6, Adenosine receptor A2b (Homo sapiens, UniProt P29275); assay: Binding affinity to NLuc human A2B adenosine receptor expressed in HEK293-A cells in presence of 1 uM PSB603 by NanoBRET binding assay; format: cell-based
T6 sequence (P29275 whole entry): T3 sequence (whole entry)

Adenosine receptor A3 = molecular target: T7, Adenosine receptor A3 (Homo sapiens, UniProt P0DMS8); assay: Binding affinity to NLuc human A3 adenosine receptor expressed in HEK293-A cells in presence of 1 uM MRS1220 by NanoBRET binding assay; format: cell-based
T7 sequence (P0DMS8 whole entry): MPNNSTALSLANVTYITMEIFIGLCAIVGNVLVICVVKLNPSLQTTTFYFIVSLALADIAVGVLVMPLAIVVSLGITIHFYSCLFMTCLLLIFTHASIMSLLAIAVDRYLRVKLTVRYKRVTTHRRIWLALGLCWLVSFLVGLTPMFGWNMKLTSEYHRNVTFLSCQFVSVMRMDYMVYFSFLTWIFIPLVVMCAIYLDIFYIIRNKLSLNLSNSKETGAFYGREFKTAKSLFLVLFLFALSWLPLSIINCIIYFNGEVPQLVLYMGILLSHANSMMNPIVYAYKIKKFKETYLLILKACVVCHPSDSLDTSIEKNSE

[11] = molecular target: T5, Adenosine receptor A1 (Homo sapiens); assay: Binding affinity to NanoLuc-human A1 adenosine receptor expressed in HEK293-A cells assessed as binding constant (kon) by NanoBRET competitive binding assay; format: cell-based; conditions: filed as antagonist
[12] = molecular target: T8, Adenosine receptor A3 (Homo sapiens) (UniProt P0DMS8); assay: Binding affinity to NLuc human A3 adenosine receptor expressed in HEK293-A cells assessed as maximal binding capacity in presence of 1 uM MRS1220 by NanoBRET binding assay; format: cell-based; conditions: filed as antagonist
T8 sequence (whole entry): T7 sequence (P0DMS8 whole entry)

Adenosine receptor A1 [13] = molecular target: T1, Adenosine receptor A1; assay: Binding affinity to NLuc human A1 adenosine receptor expressed in HEK293-A cells in presence of 1 uM SLV320 by NanoBRET binding assay; format: cell-based
Adenosine receptor A1 [14] = molecular target: T1, Adenosine receptor A1; assay: Binding affinity to NanoLuc-human A1 adenosine receptor expressed in HEK293-A cells assessed as kinetic dissociation constant by NanoBRET competitive binding assay; format: cell-based
[15] = molecular target: T5, Adenosine receptor A1 (Homo sapiens); assay: Binding affinity to SNAP-tagged-human A1 adenosine receptor expressed in HEK293 cells assessed as red fluorescent spot in plasma membrane pre-incubated with 10 uM SLV320 by microscopy based TIRF assay; format: cell membranes
Adenosine receptor A1 [16] = molecular target: T1, Adenosine receptor A1; assay: Binding affinity to NanoLuc human A1 adenosine receptor expressed in HEK293-A cells in prescence of SLV320 by NanoBRET competitive binding assay; format: cell-based
Adenosine receptor A1 [17] = molecular target: T1, Adenosine receptor A1; assay: Binding affinity to NanoLuc human A1 adenosine receptor expressed in HEK293-A cells in prescence of NECA by NanoBRET competitive binding assay; format: cell-based
[18] = molecular target: T5, Adenosine receptor A1 (Homo sapiens); assay: Binding affinity to SNAP-tagged-human A1 adenosine receptor expressed in HEK293 cells at 50 nM after 30 mins in presence of SLV320 by confocal microscopy method; format: cell-based
Adenosine receptor A1 [19] = molecular target: T1, Adenosine receptor A1; assay: Binding affinity to NanoLuc human A1 adenosine receptor expressed in HEK293-A cells in prescence of DPCPX by NanoBRET competitive binding assay; format: cell-based
[20] = molecular target: T5, Adenosine receptor A1 (Homo sapiens); assay: Binding affinity to SNAP-tagged-human A1 adenosine receptor expressed in HEK293 cells at 10 nM after 30 mins in presence of SLV320 by confocal microscopy method; format: cell-based

T4 sequence (P29274 whole entry): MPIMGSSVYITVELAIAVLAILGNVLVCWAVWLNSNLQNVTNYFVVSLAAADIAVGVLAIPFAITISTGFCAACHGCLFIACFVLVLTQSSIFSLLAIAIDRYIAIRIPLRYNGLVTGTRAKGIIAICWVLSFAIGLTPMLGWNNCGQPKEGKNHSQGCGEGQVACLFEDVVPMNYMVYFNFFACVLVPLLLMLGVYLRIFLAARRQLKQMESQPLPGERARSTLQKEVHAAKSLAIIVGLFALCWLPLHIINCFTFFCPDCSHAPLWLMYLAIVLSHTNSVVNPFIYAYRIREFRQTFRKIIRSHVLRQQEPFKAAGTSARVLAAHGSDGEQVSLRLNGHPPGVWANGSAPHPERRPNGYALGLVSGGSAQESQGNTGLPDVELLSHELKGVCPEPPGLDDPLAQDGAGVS

- Ki (Adenosine receptor A1 [1]): 16.2 nM
SMILES: CCCn1c(=O)c2[nH]c(C34CCC(C(=O)NCCCNC(=O)COCCNC(=O)OC(C)(C)C)(CC3)CC4)nc2n(CCC)c1=O

- Ki (Adenosine receptor A1 [1]): 20.4 nM
SMILES: CCCn1c(=O)c2[nH]c(C34CCC(C(=O)NCCNC(=O)CCCCCNC(=O)COc5ccc(/C=C/C6=[N+]7C(=Cc8ccc(-c9cccs9)n8[B-]7(F)F)C=C6)cc5)(CC3)CC4)nc2n(CCC)c1=O

- Kd (Adenosine receptor A1 [2]): 35.5 nM
- Kd (Adenosine receptor A1 [3]): 33.9 nM
SMILES: CCCn1c(=O)c2[nH]c(-c3ccc(OCC(=O)NCCNC(=O)CCNC(=O)CCCCNC(=O)CCCCNC(=O)COc4ccc(/C=C/C5=[N+]6C(=Cc7ccc(-c8cccs8)n7[B-]6(F)F)C=C5)cc4)cc3)nc2n(CCC)c1=O

- Bmax [4]: 0.016
- Kd (Adenosine receptor A2a [5]): 28.2 nM
- Bmax (Adenosine receptor A2a [6]): 0.035
- pKb [7]: 9.75
- Bmax [8]: 0.018
- K [9]: 0.054 min⁻¹
- Activity [10]: inactive
- Ki (Adenosine receptor A1 [1]): 0.288 nM
- Kd (Adenosine receptor A2b): 7.76 nM
- Kd (Adenosine receptor A3): 135 nM
- K [11]: 17.9 10^6/M/min
- Bmax [12]: 0.012
- Kd (Adenosine receptor A1 [13]): 1.17 nM
- Kd (Adenosine receptor A1 [14]): 3.09 nM
SMILES: CCCn1c(=O)c2[nH]c(C34CCC(C(=O)NCCNC(=O)CCNC(=O)CCNC(=O)CCCCCNC(=O)COc5ccc(/C=C/C6=[N+]7C(=Cc8ccc(-c9cccs9)n8[B-]7(F)F)C=C6)cc5)(CC3)CC4)nc2n(CCC)c1=O

- Kd (Adenosine receptor A2a [5]): > 1000 nM
- Activity [15]: inactive
- pKb [7]: 7.12
- Bmax [8]: 0.03
- K [9]: 0.117 min⁻¹
- Ki (Adenosine receptor A1 [1]): 200 nM
- Kd (Adenosine receptor A2b): > 1000 nM
- Kd (Adenosine receptor A3): > 1000 nM
- K [11]: 0.86 10^6/M/min
- Ki (Adenosine receptor A1 [16]): 0.708 nM
- Kd (Adenosine receptor A1 [13]): 44.7 nM
- Ki (Adenosine receptor A1 [17]): 398 nM
- Kd (Adenosine receptor A1 [14]): 138 nM
- Activity [18]: inactive
- Ki (Adenosine receptor A1 [19]): 7.41 nM
SMILES: CCCn1c(=O)c2[nH]c(C34CCC(C(=O)NCCNC(=O)CCNC(=O)CCNC(=O)CCCCC[N+]5=C(/C=C/C=C/C=C6/N(C)c7ccc(S(=O)(=O)O)cc7C6(C)C)C(C)(C)c6cc(S(=O)(=O)[O-])ccc65)(CC3)CC4)nc2n(CCC)c1=O

The next lines start with the compound.

SMILES: CCCn1c(=O)c2[nH]c(C34CCC(C(=O)NCCCNC(=O)COCCOCCNC(=O)OC(C)(C)C)(CC3)CC4)nc2n(CCC)c1=O
- Ki (Adenosine receptor A1 [1]): 22.4 nM

SMILES: CCCn1c(=O)c2[nH]c(C34CCC(CCC(=O)NCCNC(=O)COCCOCCNC(=O)OC(C)(C)C)(CC3)CC4)nc2n(CCC)c1=O
- Ki (Adenosine receptor A1 [1]): 13.2 nM

SMILES: CCCn1c(=O)c2[nH]c(C34CC5CC(CC(C5)C3)C4)nc2n(CCCNC(=O)c2ccc(C(=O)NCCNC(=O)CCCCC[N+]3=C(/C=C/C=C/C=C4/N(C)c5ccc(S(=O)(=O)O)cc5C4(C)C)C(C)(C)c4cc(S(=O)(=O)[O-])ccc43)cc2)c1=O
- Ki (Adenosine receptor A1 [1]): > 10000 nM

SMILES: CCCn1c(=O)c2[nH]c(C34CCC(C(=O)NCCC(=O)NCCNC(=O)COCCNC(=O)OC(C)(C)C)(CC3)CC4)nc2n(CCC)c1=O
- Ki (Adenosine receptor A1 [1]): 11.2 nM

SMILES: CCCn1c(=O)c2[nH]c(C34CC5CC(CC(C5)C3)C4)nc2n(CCCNC(=O)c2ccc(C(=O)NCCNC(=O)CCNC(=O)CCCCCNC(=O)COc3ccc(/C=C/C4=[N+]5C(=Cc6ccc(-c7cccs7)n6[B-]5(F)F)C=C4)cc3)cc2)c1=O
- Activity [20]: inactive
- Bmax [4]: 0.004
- Kd (Adenosine receptor A2a [5]): 50.1 nM
- Bmax (Adenosine receptor A2a [6]): 0.003
- pKb [7]: 8.72
- Bmax [8]: 0.019
- K [9]: 0.046 min⁻¹
- Ki (Adenosine receptor A1 [1]): 9.77 nM
- Kd (Adenosine receptor A2b): 55 nM
- Kd (Adenosine receptor A3): 58.9 nM
- K [11]: 3.6 10^6/M/min
- Ki (Adenosine receptor A1 [16]): 1.41 nM
- Bmax [12]: 0.001
- Kd (Adenosine receptor A1 [13]): 3.16 nM
- Ki (Adenosine receptor A1 [17]): 1100 nM
- Kd (Adenosine receptor A1 [14]): 13.2 nM
- Ki (Adenosine receptor A1 [19]): 20.9 nM

SMILES: CCCn1c(=O)c2[nH]c(C34CCC(C(=O)NCCCNC(=O)CCNC(=O)CCNC(=O)OC(C)(C)C)(CC3)CC4)nc2n(CCC)c1=O
- Ki (Adenosine receptor A1 [1]): 12.9 nM
